Reference: PMC10580319, “Quantitative Imaging of the Action of vCPP2319, an Antimicrobial Peptide from a Viral Scaffold, against Staphylococcus aureus Biofilms of a Clinical Isolate” (ACS Infectious Diseases, 2023)
Where no end group is shown, it is not given here.

Experiments:
[1] = system: S. aureus ATCC 6538 biofilms; assay: Resazurin reduction fluorometric assay on 24 h-preformed biofilms; type: cell-based, Staphylococcus aureus; details: 0.78 to 50 μM, 4 h and 24 h treatment, dose-dependent
Experimental: (§1) The effect of vCPP2319 on 24 h-preformed S. aureus biofilms was evaluated using three distinct methods, as previously described:[24] the metabolic activity and viability of biofilm-embedded cells was determined using a resazurin reduction fluorometric assay and a colony count assay, respectively. The total biofilm biomass was quantified by using a crystal violet assay.
(§2) Resazurin, the active compound in alamarBlue reagent (Invitrogen), is a blue dye that can be reduced to a pink fluorescent intermediate, resorufin, as a result of cells metabolic activity.[48]S. aureus suspensions were prepared to a final concentration of 1 × 10^6 CFU/mL and incubated in a sterile 96-well microtiter black flat-bottomed polystyrene plate (Corning) for 24 h at 37 °C. […] After washing the biofilms twice with MHB, alamarBlue reagent was added at a final concentration 10% (v/v in MHB) to each sample and its reduction was monitored by measuring the fluorescence intensity (excitation and emission wavelengths were 530 and 590 nm, respectively) of the samples every 5 min during 2 h at 37 °C, in an infinite M200 microplate reader (Tecan). […] The percentage of resazurin reduction was determined relatively to the control, after blank (10% (v/v) alamarBlue reagent in MHB) correction.

[2] = system: S. aureus clinical isolate biofilms; assay: as above; type: cell-based, Staphylococcus aureus; details: 4 h treatment, only at 25 and 50 μM
Experimental: as §1, §2

[3] = system: S. aureus clinical isolate biofilms; assay: Colony count assay on 24 h-preformed biofilms; type: cell-based, Staphylococcus aureus; details: mean ± SD
Experimental: as §1
S. aureus suspensions at 1 × 10^6 CFU/mL were incubated in a sterile 96-well microtiter clear flat-bottomed polystyrene plate (Corning) for 24 h at 37 °C. Nonadherent bacteria were removed after a washing step with MHB, and preformed biofilms were incubated in the absence or presence of vCPP2319 at 25 or 50 μM, for 4 h at 37 °C. Untreated biofilms were used as a control. To evaluate the effect of vCPP2319 redosing on biofilm-embedded bacteria, 24 h-preformed biofilms were incubated in the absence or presence of vCPP2319 at 25 μM, for 4 h at 37 °C. After a washing step with MHB, biofilms were further incubated in the absence or presence of an additional dose of vCPP2319 at 25 or 50 μM, for 4 h at 37 °C. In both experimental settings, after two washing steps with PBS, the biofilms were resuspended in PBS, followed by cell scrapping with a pipet tip as described elsewhere.[49],[50] […] After incubation, the biofilms were removed by cell scrapping with a pipet tip as described elsewhere.[49],[50] In all experimental settings, aliquots were vortexed at high speed, serially diluted in PBS and plated on nutrient-rich trypcase soy agar (TSA) plates (bioMérieux, Marcy l’Etoile, France). After incubation for 24 h at 37 °C, bacterial colonies were counted, and viable bacteria (in CFU/mL) were reported as percentage of the control.

HMEC-1 cells = assay: Cytotoxicity, CellTiter-Blue cell viability assay; type: cell-based, human; details: 24 h incubation
Experimental: Human dermal microvascular endothelium cells (HMEC-1, ATCC CRL-3243) (ATCC, Manassas, VA, USA) were cultured as a monolayer using MCDB-131 medium (without L-glutamine) with phenol red (Gibco, Thermo-Fisher, Waltham, MA, USA). The medium was supplemented with 10% (v/v) fetal bovine serum (FBS), 1% (v/v) penicillin/streptomycin (Gibco, Thermo-Fisher), 10 ng/mL epidermal growth factor (EGF), 1 μg/mL hydrocortisone (Sigma-Aldrich, St. Louis, MO, USA), and 10 mM glutamine (ATCC), according to the manufacturer’s instructions. Cells were grown in a humidified atmosphere of 5% CO2 at 37 °C. The cytotoxicity of vCPP2319 toward HMEC-1 cells was determined using CellTiter-Blue Cell Viability Assay (Promega, USA), according to the manufacturer’s instructions. HMEC-1 cells were seeded into a sterile 96-well clear flat-bottomed polystyrene plate (Corning) at 2.5 × 10^4 cells/well and incubated for 24 h at 37 °C. After medium removal, cells were washed twice with PBS. […] The fluorescence intensity was measured with excitation and emission at 560 and 590 nm, respectively, using the infinite M200 microplate reader (Tecan). […] HMEC-1 cells metabolic activity (%) was determined using the following equation: [drawing 2] 2 where FP is the fluorescence intensity of peptide-treated cells, FNC is the fluorescence intensity of negative controls, and FPC is the fluorescence intensity of positive controls. […]

[4] = Dynamic light scattering, self-assembly; type: physicochemical; details: DLS, in PBS, preincubated 4 h at 25 °C, 50, 100, 200 and 500 μM, two independent experiments (Figure S2)
Experimental: DLS experiments were carried out on a Zetasizer Nano ZS instrument from Malvern (Worcestershire, UK). vCPP2319, in PBS, was preincubated for 4 h, at 25 °C, at different concentrations (50, 100, 200, and 500 μM). The Z-average hydrodynamic diameter was measured using DLS in particle size analysis mode. For each experiment, a single measurement, corresponding to an autocorrelation curve averaged from a minimum of 20 runs, was performed. All measurements were performed at 25 °C. Data were obtained from two independent experiments.

With WRRRYRRWRRRRRWRRRPRR-NH2 [vCPP2319] the “metabolic activity of biofilm-embedded cells” value [1] was “significant reduction”, the “metabolic activity of biofilm-embedded cells” value [2] was “significantly reduced” and the “percentage of viable cells” value ([3]; 25 μM for 4 h, then second treatment at 25 μM for 4 h) was 27.6 ± 13.6%. For the same substance, the “percentage of viable cells” value ([3]; 25 μM for 4 h, then second treatment at 50 μM for 4 h) was 9.4 ± 4.7%, the “percentage of viable cells” value ([3]; first treatment 25 μM for 4 h, relative to untreated biofilm) was 44.7 ± 4.3% and the “effect on metabolic activity of HMEC-1 cells” value (HMEC-1 cells; 50 μM, highest concentration tested) was “slight effect”. For the same substance, the “effect on metabolic activity of HMEC-1 cells” value (HMEC-1 cells; concentrations of up to 25 μM) was “no effect” and the self-assembly [4] was “self-assemble into nanoparticles”.
